Experimental data from patent publication US7396837B2, “Antitumoral analogs of lamellarins” (Pharma Mar, S.A.U., priority 2002, dated 2008).
Where two headings read alike, the source gives them in different places.

Legend:
DU-145 = assay: SRB colorimetric cell growth inhibition assay, DU-145; assay type: cell-based; settings: Homo sapiens; for CC50: cell killing (cytotoxic effect), read-out: LC50 DU-145; for GI50: GI=growth inhibition, read-out: GI50 DU-145; for IC (TGI): total growth inhibition (cytostatic effect), read-out: TGI DU-145
Procedure, shortened: (§1)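 After uninterrupted treatment, cultures are fixed and stained with sulforhodamine B, and absorbance reflects cell growth and viability. Each value represents the average of triplicate wells with SD.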

LNCaP = assay: SRB colorimetric cell growth inhibition assay, LNCaP; assay type: cell-based; settings: Homo sapiens, LNCaP, LN-caP; for GI50: GI=growth inhibition, read-out: GI50 LN-caP; for CC50: cell killing (cytotoxic effect), read-out: LC50 LN-caP; for IC (TGI): total growth inhibition (cytostatic effect), read-out: TGI LN-caP
Procedure, shortened: as §1

HT-29 = assay: SRB colorimetric cell growth inhibition assay, HT-29; assay type: cell-based; settings: Homo sapiens; for CC50: cell killing (cytotoxic effect), read-out: LC50 HT-29; for GI50: GI=growth inhibition, read-out: GI50 HT-29; for IC (TGI): total growth inhibition (cytostatic effect), read-out: TGI HT-29
Procedure, shortened: as §1

SK-MEL-28 = assay: SRB colorimetric cell growth inhibition assay, SK-MEL-28; assay type: cell-based; settings: Homo sapiens, SK-MEL-28, MEL-28; for GI50: GI=growth inhibition, read-out: GI50 MEL-28; for CC50: cell killing (cytotoxic effect), read-out: LC50 MEL-28; for IC (TGI): total growth inhibition (cytostatic effect), read-out: TGI MEL-28
Procedure, shortened: as §1

PANC-1 = assay: SRB colorimetric cell growth inhibition assay, PANC-1; assay type: cell-based; settings: Homo sapiens; for CC50: cell killing (cytotoxic effect), read-out: LC50 PANC-1; for IC (TGI): total growth inhibition (cytostatic effect), read-out: TGI PANC-1; for GI50: GI=growth inhibition, read-out: GI50 PANC-1
Procedure, shortened: as §1

H-MEC-1 = assay: SRB colorimetric cell growth inhibition assay, H-MEC-1; assay type: cell-based; settings: Homo sapiens, HMEC-1, H-MEC-1
Procedure, shortened: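 Sulforhodamine B colorimetric assay of cell growth and viability, mean ± SD of triplicate wells. Parameters derived: GI (growth inhibition), TGI (total growth inhibition, cytostatic) and LC (cell killing, cytotoxic).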

LoVo-Dox = assay: SRB colorimetric cell growth inhibition assay, LoVo-Dox (MDR); assay type: cell-based; settings: Homo sapiens, LOVO-DOX; for GI50: GI=growth inhibition, read-out: GI50 LOVO-DOX; for CC50: cell killing (cytotoxic effect), read-out: LC50 LOVO-DOX; for IC (TGI): total growth inhibition (cytostatic effect), read-out: TGI LOVO-DOX
Procedure, shortened: as §1

A-549 = assay: SRB colorimetric cell growth inhibition assay, A-549; assay type: cell-based; settings: Homo sapiens, A549, A-549; for GI50: GI=growth inhibition, read-out: GI50 A-549; for CC50: cell killing (cytotoxic effect), read-out: LC50 A-549; for IC (TGI): total growth inhibition (cytostatic effect), read-out: TGI A-549
Procedure, shortened: as §1

SK-BR-3 = assay: SRB colorimetric cell growth inhibition assay, SK-BR-3; assay type: cell-based; settings: Homo sapiens; for CC50: cell killing (cytotoxic effect), read-out: LC50 SK-BR-3; for GI50: GI=growth inhibition, read-out: GI50 SK-BR-3; for IC (TGI): total growth inhibition (cytostatic effect), read-out: TGI SK-BR-3
Procedure, shortened: as §1

IGROV-ET = assay: SRB colorimetric cell growth inhibition assay, IGROV-ET (ET-743 resistant); assay type: cell-based; settings: Homo sapiens, IGROV-ET; for GI50: GI=growth inhibition, read-out: GI50 IGROV-ET; for CC50: cell killing (cytotoxic effect), read-out: LC50 IGROV-ET; for IC (TGI): total growth inhibition (cytostatic effect), read-out: TGI IGROV-ET
Procedure, shortened: as §1

LoVo = assay: SRB colorimetric cell growth inhibition assay, LoVo; assay type: cell-based; settings: Homo sapiens; for CC50: cell killing (cytotoxic effect), read-out: LC50 LOVO; for GI50: GI=growth inhibition, read-out: GI50 LOVO; for IC (TGI): total growth inhibition (cytostatic effect), read-out: TGI LOVO
Procedure, shortened: as §1

human topoisomerase I = biological target: T1, human topoisomerase I (Homo sapiens, UniProt P11387); assay: Topoisomerase I DNA relaxation assay (supercoiled plasmid DNA); assay type: biochemical; settings: for stimulation of DNA cleavage by topoisomerase I / inhibition of topoisomerase I (nicked DNA band) in DNA relaxation assay: supercoiled plasmid DNA, each compound tested at 1 μM, agarose gel with ethidium bromide
T1 sequence (P11387 1-765): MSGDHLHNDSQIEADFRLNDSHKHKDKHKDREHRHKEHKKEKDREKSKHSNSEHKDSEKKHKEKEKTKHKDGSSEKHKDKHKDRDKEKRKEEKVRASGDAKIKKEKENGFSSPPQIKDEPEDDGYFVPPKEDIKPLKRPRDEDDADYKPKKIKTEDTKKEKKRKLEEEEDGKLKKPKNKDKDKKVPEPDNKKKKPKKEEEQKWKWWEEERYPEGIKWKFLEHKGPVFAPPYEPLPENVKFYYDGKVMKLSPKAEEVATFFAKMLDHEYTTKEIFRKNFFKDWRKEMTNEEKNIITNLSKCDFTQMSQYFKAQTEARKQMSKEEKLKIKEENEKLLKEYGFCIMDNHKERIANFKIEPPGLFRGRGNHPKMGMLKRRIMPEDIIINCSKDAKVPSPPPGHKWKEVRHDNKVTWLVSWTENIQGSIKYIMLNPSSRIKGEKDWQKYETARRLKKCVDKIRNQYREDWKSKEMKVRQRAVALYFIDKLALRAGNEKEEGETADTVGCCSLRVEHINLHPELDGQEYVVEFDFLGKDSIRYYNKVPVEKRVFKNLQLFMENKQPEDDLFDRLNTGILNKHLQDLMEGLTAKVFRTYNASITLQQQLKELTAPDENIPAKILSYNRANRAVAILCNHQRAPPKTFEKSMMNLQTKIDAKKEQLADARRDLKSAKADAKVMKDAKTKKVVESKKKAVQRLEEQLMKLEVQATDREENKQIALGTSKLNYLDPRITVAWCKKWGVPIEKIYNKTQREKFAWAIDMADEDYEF
Procedure, shortened: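 Supercoiled plasmid DNA was relaxed by human topoisomerase I with or without test compound at 1 μM. Products were resolved by agarose gel electrophoresis with ethidium bromide staining.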

K-562 = assay: SRB colorimetric cell growth inhibition assay, K-562; assay type: cell-based; settings: Homo sapiens, K562, K-562; for GI50: GI=growth inhibition, read-out: GI50 K-562; for CC50: cell killing (cytotoxic effect), read-out: LC50 K-562; for IC (TGI): total growth inhibition (cytostatic effect), read-out: TGI K-562
Procedure, shortened: as §1

IGROV = assay: SRB colorimetric cell growth inhibition assay, IGROV; assay type: cell-based
Procedure, shortened: as §1

[1] = Homo sapiens, IGROV; cell killing (cytotoxic effect); read-out: LC50 IGROV

COc1cc(-c2c3n(c4c(=O)oc5cc(OC(=O)[C@@H](N)Cc6c[nH]c7ccccc67)c(OC)cc5c24)CCc2cc(OC(=O)[C@@H](N)Cc4c[nH]c5ccccc45)c(OC)cc2-3)ccc1OC(=O)[C@@H](N)Cc1c[nH]c2ccccc12 [Compound 24]
CC50 (DU-145; DU-145, DU-145): 7.13 µM
GI50 (DU-145; DU-145): 0.913 µM
IC (TGI) (DU-145; DU-145): 2.94 µM
GI50 (LNCaP): 0.934 µM
CC50 (LNCaP): 3.89 µM
IC (TGI) (LNCaP): 1.91 µM
CC50 (HT-29; HT-29, HT-29): 7.13 µM
GI50 (HT-29; HT-29): 7.13 µM
IC (TGI) (HT-29; HT-29): 7.13 µM
GI50 (SK-MEL-28): 1.38 µM
CC50 (SK-MEL-28): 5.74 µM
IC (TGI) (SK-MEL-28): 2.81 µM
CC50 (PANC-1; PANC-1, PANC-1): 7.13 µM
IC (TGI) (PANC-1; PANC-1, PANC-1): 6.23 µM
GI50 (PANC-1; PANC-1): 1.34 µM
GI50 (H-MEC-1; GI=growth inhibition, read-out: GI50 H-MEC-1): 0.806 µM
IC (TGI) (H-MEC-1; total growth inhibition (cytostatic effect), read-out: TGI H-MEC-1): 2.2 µM
GI50 (LoVo-Dox): 0.891 µM
CC50 (LoVo-Dox): 7.13 µM
IC (TGI) (LoVo-Dox): 3.66 µM
GI50 (A-549): 1.55 µM
CC50 (A-549): 7.13 µM
IC (TGI) (A-549): 3.37 µM
CC50 (SK-BR-3; SK-BR-3, SK-BR-3): 5.58 µM
GI50 (SK-BR-3; SK-BR-3): 0.653 µM
IC (TGI) (SK-BR-3; SK-BR-3): 1.93 µM
GI50 (IGROV-ET): 1.31 µM
CC50 (IGROV-ET): 7.13 µM
IC (TGI) (IGROV-ET): 7.13 µM
CC50 (LoVo; LoVo): 4.28 µM
GI50 (LoVo; LOVO): 0.749 µM
IC (TGI) (LoVo; LOVO): 1.78 µM
stimulation of DNA cleavage by topoisomerase I / inhibition of topoisomerase I (nicked DNA band) in DNA relaxation assay (human topoisomerase I): inhibit topoisomerase I
GI50 (K-562): 0.68 µM
CC50 (K-562): 5.3 µM
IC (TGI) (K-562): 1.91 µM
CC50 (IGROV; [1]): 7.13 µM
GI50 (IGROV; Homo sapiens; IGROV; GI=growth inhibition; read-out: GI50 IGROV): 1.23 µM
IC (TGI) (IGROV; Homo sapiens; IGROV; total growth inhibition (cytostatic effect); read-out: TGI IGROV): 4.82 µM

COc1cc(-c2c3c4cc(OC)c(OC(=O)CCCCCN)cc4oc(=O)c3n3ccc4cc(OC(=O)CCCCCN)c(OC)cc4c23)ccc1OC(=O)CCCCCN [Compound 169]
GI50 (DU-145; DU-145, DU-145): 0.0151 µM
CC50 (DU-145; DU-145, DU-145): 0.0105 µM
IC (TGI) (DU-145; DU-145, DU-145): 0.0901 µM
GI50 (LNCaP): 0.0373 µM
CC50 (LNCaP): 1.24 µM
IC (TGI) (LNCaP): 0.183 µM
GI50 (HT-29; HT-29, HT-29): 2.97 µM
CC50 (HT-29; HT-29, HT-29): 10.5 µM
IC (TGI) (HT-29; HT-29, HT-29): 10.5 µM
GI50 (SK-MEL-28): 0.0464 µM
CC50 (SK-MEL-28): 10.5 µM
IC (TGI) (SK-MEL-28): 0.529 µM
GI50 (PANC-1; PANC-1, PANC-1): 0.152 µM
CC50 (PANC-1; PANC-1, PANC-1): 10.5 µM
IC (TGI) (PANC-1; PANC-1, PANC-1): 10.5 µM
GI50 (LoVo-Dox): 0.258 µM
CC50 (LoVo-Dox): 1050 µM
IC (TGI) (LoVo-Dox): 0.922 µM
GI50 (A-549): 0.0646 µM
CC50 (A-549): 9.74 µM
IC (TGI) (A-549): 1.14 µM
GI50 (SK-BR-3; SK-BR-3, SK-BR-3): 0.0387 µM
CC50 (SK-BR-3; SK-BR-3, SK-BR-3): 10.5 µM
IC (TGI) (SK-BR-3; SK-BR-3, SK-BR-3): 0.132 µM
GI50 (IGROV-ET): 0.0418 µM
CC50 (IGROV-ET): 10.5 µM
IC (TGI) (IGROV-ET): 0.301 µM
GI50 (LoVo; LoVo): 0.159 µM
CC50 (LoVo; LoVo): 1.42 µM
IC (TGI) (LoVo; LoVo): 0.418 µM
stimulation of DNA cleavage by topoisomerase I, concentration-dependent measurements compared with LAM-D (3) (human topoisomerase I; dose-response analysis): equally efficient to (3)
stimulation of DNA cleavage by topoisomerase I / inhibition of topoisomerase I (nicked DNA band) in DNA relaxation assay (human topoisomerase I): inhibit topoisomerase I
GI50 (K-562): 0.068 µM
CC50 (K-562): 10.5 µM
IC (TGI) (K-562): 3.21 µM
GI50 (IGROV; Homo sapiens, IGROV; GI=growth inhibition; read-out: GI50 IGROV): 0.0471 µM
CC50 (IGROV; [1]): 10.5 µM
IC (TGI) (IGROV; Homo sapiens, IGROV; total growth inhibition (cytostatic effect); read-out: TGI IGROV): 1.92 µM
